Laboratory results published in patent publication US7985410B2, “Method or agent for inhibiting the function of efflux pump Pseudomonas aeruginosa” (Tokai University, priority 2006, dated 2011).
≈ marks a conversion by molar mass, not a printed value. Where two headings read alike, the source gives them in different places.

What was measured:
Format in all cases: cell-based
[1] = system: Pseudomonas aeruginosa lacking OprM, plasmid with OprM (G101C); experiment: Drug sensitivity (MIC), OprM (G101C)
Method: (§1) Mutant protein was prepared in which 20 amino acid residues were replaced by cysteine residues, respectively, in E1 and E2 domains of the amino acid sequence of mature OprM protein as above. First, OprM gene was introduced into pUCP20 as a vector. This vector is a shuttle vector which works in Escherichia coli and Pseudomonas aeruginosa. Specific mutation was introduced to OprM gene by using regular mutation introducing kit, and resultant vector was transformed into E. coli. The resultant E. coli was cultured to prepare plasmid, and the sequence of the plasmid was determined to confirm that the mutation was successfully introduced.
(§2) Next, the plasmid was introduced into the Pseudomonas aeruginosa lacking OprM, and the drug sensitivity of the resultant bacteria was determined to evaluate the pump function thereof. Drug sensitivity might be enhanced if the function of the pump was inhibited. Drug sensitivity was indicated by minimum inhibitory concentration (MIC). Aztreonam (AZT) (β-1 lactam antibiotic) and nalidixic acid (NA) (qunolone antibiotic) were used as drugs.

[2] = system: Pseudomonas aeruginosa lacking OprM, plasmid with OprM (Q312C); experiment: Drug sensitivity (MIC), OprM (Q312C)
Method: as §1, §2

[3] = system: Pseudomonas aeruginosa lacking OprM, plasmid with OprM (D318C); experiment: Drug sensitivity (MIC), OprM (D318C); conditions: for resistance of the bacteria to the drug (in words): OprM (D318C) mutant vs wild type; for MIC: Pseudomonas aeruginosa, OprM (D318C)
Method: as §1, §2

[4] = system: Pseudomonas aeruginosa lacking OprM, plasmid with OprM (D102C); experiment: Drug sensitivity (MIC), OprM (D102C)
Method: as §1, §2

[5] = system: Pseudomonas aeruginosa lacking OprM, plasmid with OprM (T106C); experiment: Drug sensitivity (MIC), OprM (T106C)
Method: as §1, §2

[6] = system: Pseudomonas aeruginosa lacking OprM, plasmid with OprM (T105C); experiment: Drug sensitivity (MIC), OprM (T105C)
Method: as §1, §2

[7] = system: Pseudomonas aeruginosa lacking OprM, plasmid with OprM (P109C); experiment: Drug sensitivity (MIC), OprM (P109C); conditions: for MIC: Pseudomonas aeruginosa, OprM (P109C)
Method: as §1, §2

[8] = system: Pseudomonas aeruginosa lacking OprM, plasmid with OprM (R311C); experiment: Drug sensitivity (MIC), OprM (R311C); conditions: for resistance of the bacteria to the drug (in words): OprM (311C) mutant vs wild type; for MIC: Pseudomonas aeruginosa, OprM (R311C)
Method: as §1, §2

[9] = system: Pseudomonas aeruginosa lacking OprM, plasmid with OprM (L316C); experiment: Drug sensitivity (MIC), OprM (L316C)
Method: as §1, §2

[10] = system: Pseudomonas aeruginosa lacking OprM, plasmid with OprM (L313C); experiment: Drug sensitivity (MIC), OprM (L313C)
Method: as §1, §2

[11] = system: Pseudomonas aeruginosa lacking OprM, plasmid with OprM (S108C); experiment: Drug sensitivity (MIC), OprM (S108C)
Method: as §1, §2

[12] = system: Pseudomonas aeruginosa lacking OprM, plasmid with OprM (G320C); experiment: Drug sensitivity (MIC), OprM (G320C)
Method: as §1, §2

[13] = system: Pseudomonas aeruginosa lacking OprM, plasmid with OprM (F317C); experiment: Drug sensitivity (MIC), OprM (F317C)
Method: as §1, §2

[14] = system: Pseudomonas aeruginosa lacking OprM, plasmid with OprM (wild type); experiment: Drug sensitivity (MIC), OprM (wild type)
Method: as §1, §2

[15] = system: Pseudomonas aeruginosa lacking OprM, plasmid with OprM (L103C); experiment: Drug sensitivity (MIC), OprM (L103C)
Method: as §1, §2

[16] = system: Pseudomonas aeruginosa lacking OprM, plasmid with OprM (G315C); experiment: Drug sensitivity (MIC), OprM (G315C)
Method: as §1, §2

[17] = system: Pseudomonas aeruginosa lacking OprM, plasmid with OprM (G107C); experiment: Drug sensitivity (MIC), OprM (G107C)
Method: as §1, §2

[18] = system: Pseudomonas aeruginosa lacking OprM, plasmid with OprM (A319C); experiment: Drug sensitivity (MIC), OprM (A319C)
Method: as §1, §2

[19] = system: Pseudomonas aeruginosa lacking OprM, plasmid with OprM (S104C); experiment: Drug sensitivity (MIC), OprM (S104C)
Method: as §1, §2

[20] = system: Pseudomonas aeruginosa lacking OprM, plasmid with OprM (S314C); experiment: Drug sensitivity (MIC), OprM (S314C)
Method: as §1, §2

[21] = system: Pseudomonas aeruginosa lacking OprM, plasmid with OprM (P100C); experiment: Drug sensitivity (MIC), OprM (P100C)
Method: as §1, §2

## C[C@H]1[C@H](NC(=O)/C(=N\OC(C)(C)C(=O)O)c2csc(N)n2)C(=O)N1S(=O)(=O)O [AZT, aztreonam]
[1]; read-out: MIC for AZT
  MIC: 3.13 µg/mL (≈ 7.19 µM)
[2]; read-out: MIC for AZT
  MIC: 0.78 µg/mL (≈ 1.79 µM)
[3]
  resistance of the bacteria to the drug (in words): markedly reduced resistance
[3]; read-out: MIC for AZT
  MIC: 0.39 µg/mL (≈ 0.896 µM)
[4]; read-out: MIC for AZT
  MIC: 3.13 µg/mL (≈ 7.19 µM)
[5]; read-out: MIC for AZT
  MIC: 3.13 µg/mL (≈ 7.19 µM)
[6]; read-out: MIC for AZT
  MIC: 3.13 µg/mL (≈ 7.19 µM)
[7]; read-out: MIC for AZT
  MIC: 3.13 µg/mL (≈ 7.19 µM)
[8]
  resistance of the bacteria to the drug (in words): markedly reduced resistance
[8]; read-out: MIC for AZT
  MIC: 0.39 µg/mL (≈ 0.896 µM)
[9]; read-out: MIC for AZT
  MIC: 3.13 µg/mL (≈ 7.19 µM)
[10]; read-out: MIC for AZT
  MIC: 3.13 µg/mL (≈ 7.19 µM)
[11]; read-out: MIC for AZT
  MIC: 3.13 µg/mL (≈ 7.19 µM)
[12]; read-out: MIC for AZT
  MIC: 1.54 µg/mL (≈ 3.54 µM)
[13]; read-out: MIC for AZT
  MIC: 1.54 µg/mL (≈ 3.54 µM)
[14]; read-out: MIC for AZT
  MIC: 3.13 µg/mL (≈ 7.19 µM)
[15]; read-out: MIC for AZT
  MIC: 3.13 µg/mL (≈ 7.19 µM)
[16]; read-out: MIC for AZT
  MIC: 0.78 µg/mL (≈ 1.79 µM)
[17]; read-out: MIC for AZT
  MIC: 3.13 µg/mL (≈ 7.19 µM)
[18]; read-out: MIC for AZT
  MIC: 1.54 µg/mL (≈ 3.54 µM)
[19]; read-out: MIC for AZT
  MIC: 3.13 µg/mL (≈ 7.19 µM)
[20]; read-out: MIC for AZT
  MIC: 3.13 µg/mL (≈ 7.19 µM)
[21]; read-out: MIC for AZT
  MIC: 3.13 µg/mL (≈ 7.19 µM)

## CCn1cc(C(=O)O)c(=O)c2ccc(C)nc21 [NA, nalidixic acid]
[1]; read-out: MIC for NA
  MIC: 50 µg/mL (≈ 215 µM)
[2]; read-out: MIC for NA
  MIC: 25 µg/mL (≈ 108 µM)
[3]
  resistance of the bacteria to the drug (in words): did not reduce resistance
[3]; read-out: MIC for NA
  MIC: 25 µg/mL (≈ 108 µM)
[4]; read-out: MIC for NA
  MIC: 50 µg/mL (≈ 215 µM)
[5]; read-out: MIC for NA
  MIC: 50 µg/mL (≈ 215 µM)
[6]; read-out: MIC for NA
  MIC: 50 µg/mL (≈ 215 µM)
[7]; OprM (P109C) mutant vs wild type
  drug sensitivity of the bacteria (in words): enhanced drug sensitivity
[7]; read-out: MIC for NA
  MIC: 3.13 µg/mL (≈ 13.5 µM)
[8]
  resistance of the bacteria to the drug (in words): markedly reduced resistance
[8]; read-out: MIC for NA
  MIC: 6.25 µg/mL (≈ 26.9 µM)
[9]; read-out: MIC for NA
  MIC: 50 µg/mL (≈ 215 µM)
[10]; read-out: MIC for NA
  MIC: 50 µg/mL (≈ 215 µM)
[11]; read-out: MIC for NA
  MIC: 50 µg/mL (≈ 215 µM)
[12]; read-out: MIC for NA
  MIC: 50 µg/mL (≈ 215 µM)
[13]; read-out: MIC for NA
  MIC: 50 µg/mL (≈ 215 µM)
[14]; read-out: MIC for NA
  MIC: 50 µg/mL (≈ 215 µM)
[15]; read-out: MIC for NA
  MIC: 50 µg/mL (≈ 215 µM)
[16]; read-out: MIC for NA
  MIC: 25 µg/mL (≈ 108 µM)
[17]; read-out: MIC for NA
  MIC: 50 µg/mL (≈ 215 µM)
[18]; read-out: MIC for NA
  MIC: 50 µg/mL (≈ 215 µM)
[19]; read-out: MIC for NA
  MIC: 50 µg/mL (≈ 215 µM)
[20]; read-out: MIC for NA
  MIC: 50 µg/mL (≈ 215 µM)
[21]; read-out: MIC for NA
  MIC: 50 µg/mL (≈ 215 µM)
